From PMC11672637, “7-O-Carboxylic Acid-Substituted 3-O-Alkyl Difluoroquercetin; An Aztreonam-Potentiating Agent Against Carbapenemase-Producing Pseudomonas aeruginosa Through Simultaneous Inhibition of Metallo-β-Lactamase and Efflux Pump” (Antibiotics, 2024)
Like-named read-outs stand apart in the source and are kept apart here.

Columns and labels:
Experiment in all cases: MIC / checkerboard with ATM
[1] = system: PA-033, blaNDM; format: cell-based, P. aeruginosa; conditions: for MIC: Pseudomonas aeruginosa, read-out: MIC of ATM with 5, PA-033
[2] = system: PA-036, blaNDM; format: cell-based, P. aeruginosa; conditions: for MIC: Pseudomonas aeruginosa, read-out: MIC of ATM with 5, PA-036
[3] = system: PA-034, blaNDM; format: cell-based, P. aeruginosa; conditions: for MIC: Pseudomonas aeruginosa, read-out: MIC of ATM with 5, PA-034
[4] = system: NDM-1-Producing P. aeruginosa (PA-017, blaNDM); format: cell-based; conditions: for MIC: Pseudomonas aeruginosa
[5] = system: PA-032, blaIMP; format: cell-based, P. aeruginosa; conditions: for MIC: Pseudomonas aeruginosa, read-out: MIC of ATM with 5, PA-032
[6] = system: PA-009, blaGES; format: cell-based, P. aeruginosa; conditions: for MIC: Pseudomonas aeruginosa, read-out: MIC of ATM with 5, PA-009
[7] = system: PA-021, blaIMP; format: cell-based, P. aeruginosa; conditions: for MIC: Pseudomonas aeruginosa, read-out: MIC of ATM with 5, PA-021
[8] = system: PA-026, blaNDM; format: cell-based, P. aeruginosa; conditions: PA-026

SMILES: CC(C)(C)CCOc1c(-c2ccc(F)c(F)c2)oc2cc(OCC(=O)O)cc(O)c2c1=O [Compound 5, 2-((2-(3,4-Difluorophenyl)-3-(3,3-dimethylbutoxy)-5-hydroxy-4-oxo-4H-chromen-7-yl)oxy)acetic Acid]
- Activity (FICI class) ([1]; PA-033): I (I (indifference, 0.5 < FICI ≤ 4))
- Concentrations of ATM and 5 at lowest FICI (ATM/5) ([1]; PA-033): 1/8
- Lowest FICI (ATM/5) ([1]; PA-033): 0.52
- Susceptibility to ATM ([1]; PA-033, ATM/5): S (S (sensitive, MIC ≤ 8 mg/L))
- FD (fold decrease in MIC of ATM with 5) ([1]; PA-033, lowest-FICI combination): 2
- MIC ([1]; 5 at 1 mg/L): 2 µg/mL
- MIC ([1]; 5 at 2 mg/L): 2 µg/mL
- MIC ([1]; 5 at 4 mg/L): 2 µg/mL
- MIC ([1]; 5 at 8 mg/L): 1 µg/mL
- MIC ([1]; 5 at 16 mg/L): 1 µg/mL
- MIC ([1]; 5 at 32 mg/L): 1 µg/mL
- MIC ([1]; 5 at 64 mg/L): 1 µg/mL
- Activity (FICI class) ([2]; PA-036): S (S (Synergy, FICI ≤ 0.5))
- Concentrations of ATM and 5 at lowest FICI (ATM/5) ([2]; PA-036): 4/8
- Lowest FICI (ATM/5) ([2]; PA-036): 0.27
- Minimum concentration of 5 to make sensitive to ATM ([2]; PA-036): 4 mg/L
- Susceptibility to ATM ([2]; PA-036, ATM/5): S (S (sensitive, MIC ≤ 8 mg/L))
- FD (fold decrease in MIC of ATM with 5) ([2]; PA-036, lowest-FICI combination): 4
- MIC ([2]; 5 at 1 mg/L): 16 µg/mL
- MIC ([2]; 5 at 2 mg/L): 16 µg/mL
- MIC ([2]; 5 at 4 mg/L): 8 µg/mL
- MIC ([2]; 5 at 8 mg/L): 4 µg/mL
- MIC ([2]; 5 at 16 mg/L): 4 µg/mL
- MIC ([2]; 5 at 32 mg/L): 4 µg/mL
- MIC ([2]; 5 at 64 mg/L): 4 µg/mL
- Activity (FICI class) ([3]; PA-034): S (S (Synergy, FICI ≤ 0.5))
- Concentrations of ATM and 5 at lowest FICI (ATM/5) ([3]; PA-034): 4/8
- Lowest FICI (ATM/5) ([3]; PA-034): 0.27
- Minimum concentration of 5 to make sensitive to ATM ([3]; PA-034): 4 mg/L
- Susceptibility to ATM ([3]; PA-034, ATM/5): S (S (sensitive, MIC ≤ 8 mg/L))
- FD (fold decrease in MIC of ATM with 5) ([3]; PA-034, lowest-FICI combination): 4
- MIC ([3]; 5 at 1 mg/L): 16 µg/mL
- MIC ([3]; 5 at 2 mg/L): 16 µg/mL
- MIC ([3]; 5 at 4 mg/L): 8 µg/mL
- MIC ([3]; 5 at 8 mg/L): 4 µg/mL
- MIC ([3]; 5 at 16 mg/L): 4 µg/mL
- MIC ([3]; 5 at 32 mg/L): 4 µg/mL
- MIC ([3]; 5 at 64 mg/L): 4 µg/mL
- Activity (FICI class) ([4]; PA-017): S (S (Synergy, FICI ≤ 0.5))
- Concentrations of ATM and 5 at lowest FICI (ATM/5) ([4]; PA-017): 4/4
- Lowest FICI (ATM/5) ([4]; PA-017): 0.26
- Minimum concentration of 5 to make sensitive to ATM ([4]; PA-017): 4 mg/L
- Susceptibility to ATM ([4]; PA-017, ATM/5): S (S (sensitive, MIC ≤ 8 mg/L))
- FD (fold decrease in MIC of ATM with 5) ([4]; PA-017, lowest-FICI combination): 4
- MIC ([4]; PA-017, compound alone, read-out: MIC, Cmpd): > 256 µg/mL
- MIC ([4]; read-out: MIC of ATM with 5, PA-017, 5 at 1 mg/L): 8 µg/mL
- MIC ([4]; read-out: MIC of ATM with 5, PA-017, 5 at 2 mg/L): 8 µg/mL
- MIC ([4]; read-out: MIC of ATM with 5, PA-017, 5 at 4 mg/L): 4 µg/mL
- MIC ([4]; read-out: MIC of ATM with 5, PA-017, 5 at 8 mg/L): 4 µg/mL
- MIC ([4]; read-out: MIC of ATM with 5, PA-017, 5 at 16 mg/L): 2 µg/mL
- MIC ([4]; read-out: MIC of ATM with 5, PA-017, 5 at 32 mg/L): 2 µg/mL
- MIC ([4]; read-out: MIC of ATM with 5, PA-017, 5 at 64 mg/L): 1 µg/mL
- Activity (FICI class) ([5]; PA-032): S (S (Synergy, FICI ≤ 0.5))
- Concentrations of ATM and 5 at lowest FICI (ATM/5) ([5]; PA-032): 2/8
- Susceptibility to ATM ([5]; PA-032, ATM/5): S (S (sensitive, MIC ≤ 8 mg/L))
- FD (fold decrease in MIC of ATM with 5) ([5]; PA-032, lowest-FICI combination): 4
- MIC ([5]; 5 at 1 mg/L): 4 µg/mL
- MIC ([5]; 5 at 2 mg/L): 4 µg/mL
- MIC ([5]; 5 at 4 mg/L): 4 µg/mL
- MIC ([5]; 5 at 8 mg/L): 2 µg/mL
- MIC ([5]; 5 at 16 mg/L): 1 µg/mL
- MIC ([5]; 5 at 32 mg/L): 1 µg/mL
- MIC ([5]; 5 at 64 mg/L): 1 µg/mL
- Activity (FICI class) ([6]; PA-009): S (S (Synergy, FICI ≤ 0.5))
- Concentrations of ATM and 5 at lowest FICI (ATM/5) ([6]; PA-009): 8/8
- Lowest FICI (ATM/5) ([6]; PA-009): 0.28
- Minimum concentration of 5 to make sensitive to ATM ([6]; PA-009): 8 mg/L
- Susceptibility to ATM ([6]; PA-009, ATM/5): S (S (sensitive, MIC ≤ 8 mg/L))
- FD (fold decrease in MIC of ATM with 5) ([6]; PA-009, lowest-FICI combination): 4
- MIC ([6]; 5 at 1 mg/L): 32 µg/mL
- MIC ([6]; 5 at 2 mg/L): 16 µg/mL
- MIC ([6]; 5 at 4 mg/L): 16 µg/mL
- MIC ([6]; 5 at 8 mg/L): 8 µg/mL
- MIC ([6]; 5 at 16 mg/L): 8 µg/mL
- MIC ([6]; 5 at 32 mg/L): 4 µg/mL
- MIC ([6]; 5 at 64 mg/L): 4 µg/mL
- Activity (FICI class) ([7]; PA-021): I (I (indifference, 0.5 < FICI ≤ 4))
- Lowest FICI (ATM/5) ([7]; PA-021): 0.50
- Susceptibility to ATM ([7]; PA-021, ATM/5): S (S (sensitive, MIC ≤ 8 mg/L))
- FD (fold decrease in MIC of ATM with 5) ([7]; PA-021, lowest-FICI combination): 2
- MIC ([7]; 5 at 1 mg/L): 1 µg/mL
- MIC ([7]; 5 at 2 mg/L): 0.5 µg/mL
- MIC ([7]; 5 at 4 mg/L): 0.5 µg/mL
- MIC ([7]; 5 at 8 mg/L): 0.5 µg/mL
- MIC ([7]; 5 at 16 mg/L): 0.5 µg/mL
- MIC ([7]; 5 at 32 mg/L): 0.5 µg/mL
- MIC ([7]; 5 at 64 mg/L): 0.5 µg/mL
- Activity (FICI class) [8]: S (S (Synergy, FICI ≤ 0.5))
- Concentrations of ATM and 5 at lowest FICI (ATM/5) [8]: 2/4
- Lowest FICI (ATM/5) [8]: 0.26
